From patent US8871787B2, “Stable crystalline salt of (R)-3-fluorophenyl-3,4,5-trifluorobenzylcarbamic acid 1-azabicyclo [2.2.2]oct-3-yl ester” (Laboratorios Salvat, S.A., priority 2007, dated 2014)

Experiments:
[1] = Hygroscopicity study at controlled relative humidity; type: physicochemical; design: mass gain or mass loss: unit not given here
[2] = system: healthy postmenopausal females; assay: Phase I clinical trial: tolerability and preliminary efficacy, voiding diary; type: in vivo, human
Experimental: A clinical trial was performed to evaluate the tolerability and preliminary efficacy of tarafenacin tartrate in healthy postmenopausal females.
Twelve subjects from 50 to 70 years old were randomized to receive tarafenacin tartrate 0.125 mg, 0.4 mg or placebo o.d. for 17 days. Subjects filled a diary to record time and volume of each void. A descriptive analysis was performed.

[3] = Equilibrium solubility of the D-tartrate salt in several solvents at 25° C.; type: physicochemical; details: for solubility: thermodynamic from solid, 25° C., measured as the free base
[4] = system: patients suffering from Overactive Bladder syndrome; assay: Phase II clinical trial: pharmacodynamics in overactive bladder patients (urodynamic assessments, tolerability); details: 4 weeks
Experimental: A pharmacodynamic study of tarafenacin tartrate in patients suffering from Overactive Bladder syndrome was performed to obtain first efficacy and tolerability data in this population.
The study was randomised, double-blind, placebo and active-controlled. Patients received tarafenacin tartrate at the dose of 0.1 or 0.2 mg, tolterodine 4 mg or placebo o.d. during 4 weeks, just after a 2 week single-blind wash-out period in which all patients received placebo. Urodynamic assessments were performed at baseline and after 4 weeks administration.
It was planned to screen approximately 100 patients and randomize 77 patients, to obtain outcome data on 63 patients. Patients who entered the study were randomized into the four treatment groups during the double blind treatment period.
After a Screening visit and a 14 day washout single blind period (placebo run in), patients were randomized to one of the four treatment arms by a 2:2:2:1 randomization schedule. In a single blind period, only the patients were blinded. During the treatment period, each patient received tarafenacin tartrate 0.1 mg/tarafenacin tartrate 0.2 mg/tolterodine (ER) 4 mg/placebo. Identical capsules were used to maintain the study blind.
The end of study procedures were performed at the Day 28 visit (End of Treatment [EOT]). A study follow up was conducted at Day 35 either telephonically or the patient was called to the clinic (End of Study [EOS]).
The primary endpoint was the pharmacodynamic endpoints and they were assessed as the mean change from baseline to Day 28 in urodynamic, salivary flow, and accommodation near point pharmacodynamic assessments.

[5] = 0.1 mg o.d., change from baseline to Day 28

## O=C(O)C(O)C(O)C(=O)O.O=C(O[C@H]1CN2CCC1CC2)N(Cc1cc(F)c(F)c(F)c1)c1cccc(F)c1 [D-tartrate salt, D-tartrate salt of (R)-3-fluorophenyl-3,4,5-trifluorobenzylcarbamic acid 1-azabicyclo[2.2.2]oct-3-yl ester]
[1]; 12% RH, 4 h
  mass gain or mass loss: −0.26
[1]; 12% RH, 8 h
  mass gain or mass loss: −0.20
[1]; 12% RH, 14 h
  mass gain or mass loss: −0.30
[1]; 12% RH, 48 h
  mass gain or mass loss: −0.04
[1]; 12% RH, 96 h
  mass gain or mass loss: −0.30
[1]; 12% RH, 144 h
  mass gain or mass loss: −0.33
[1]; 12% RH, 168 h
  mass gain or mass loss: −0.32
[1]; 12% RH, 192 h
  mass gain or mass loss: −0.27
[1]; 12% RH, 216 h
  mass gain or mass loss: −0.29
[1]; 12% RH, 240 h
  mass gain or mass loss: −0.08
[1]; 22% RH, 4 h
  mass gain or mass loss: −0.16
[1]; 22% RH, 8 h
  mass gain or mass loss: −0.26
[1]; 22% RH, 14 h
  mass gain or mass loss: −0.25
[1]; 22% RH, 48 h
  mass gain or mass loss: −0.21
[1]; 22% RH, 96 h
  mass gain or mass loss: −0.26
[1]; 22% RH, 144 h
  mass gain or mass loss: −0.18
[1]; 22% RH, 168 h
  mass gain or mass loss: −0.28
[1]; 22% RH, 192 h
  mass gain or mass loss: −0.21
[1]; 22% RH, 216 h
  mass gain or mass loss: −0.19
[1]; 22% RH, 240 h
  mass gain or mass loss: −0.11
[1]; 33% RH, 4 h
  mass gain or mass loss: −0.25
[1]; 33% RH, 8 h
  mass gain or mass loss: −0.24
[1]; 33% RH, 14 h
  mass gain or mass loss: −0.21
[1]; 33% RH, 48 h
  mass gain or mass loss: −0.19
[1]; 33% RH, 96 h
  mass gain or mass loss: −0.17
[1]; 33% RH, 144 h
  mass gain or mass loss: −0.30
[1]; 33% RH, 168 h
  mass gain or mass loss: −0.39
[1]; 33% RH, 192 h
  mass gain or mass loss: −0.11
[1]; 33% RH, 216 h
  mass gain or mass loss: −0.15
[1]; 33% RH, 240 h
  mass gain or mass loss: −0.18
[1]; 43% RH, 4 h
  mass gain or mass loss: −0.38
[1]; 43% RH, 8 h
  mass gain or mass loss: −0.32
[1]; 43% RH, 14 h
  mass gain or mass loss: −0.21
[1]; 43% RH, 48 h
  mass gain or mass loss: −0.25
[1]; 43% RH, 96 h
  mass gain or mass loss: −0.30
[1]; 43% RH, 144 h
  mass gain or mass loss: −0.40
[1]; 43% RH, 168 h
  mass gain or mass loss: −0.34
[1]; 43% RH, 192 h
  mass gain or mass loss: −0.19
[1]; 43% RH, 216 h
  mass gain or mass loss: −0.25
[1]; 43% RH, 240 h
  mass gain or mass loss: −0.18
[1]; 53% RH, 4 h
  mass gain or mass loss: −0.19
[1]; 53% RH, 8 h
  mass gain or mass loss: −0.21
[1]; 53% RH, 14 h
  mass gain or mass loss: −0.16
[1]; 53% RH, 48 h
  mass gain or mass loss: −0.17
[1]; 53% RH, 96 h
  mass gain or mass loss: −0.19
[1]; 53% RH, 144 h
  mass gain or mass loss: −0.17
[1]; 53% RH, 168 h
  mass gain or mass loss: −0.16
[1]; 53% RH, 192 h
  mass gain or mass loss: −0.20
[1]; 53% RH, 216 h
  mass gain or mass loss: −0.14
[1]; 53% RH, 240 h
  mass gain or mass loss: 0.00
[1]; 64% RH, 4 h
  mass gain or mass loss: −0.08
[1]; 64% RH, 8 h
  mass gain or mass loss: −0.07
[1]; 64% RH, 14 h
  mass gain or mass loss: −0.07
[1]; 64% RH, 48 h
  mass gain or mass loss: 0.02
[1]; 64% RH, 96 h
  mass gain or mass loss: −0.07
[1]; 64% RH, 144 h
  mass gain or mass loss: 0.15
[1]; 64% RH, 168 h
  mass gain or mass loss: 0.15
[1]; 64% RH, 192 h
  mass gain or mass loss: 0.20
[1]; 64% RH, 216 h
  mass gain or mass loss: 0.25
[1]; 64% RH, 240 h
  mass gain or mass loss: 0.59
[1]; 75% RH, 4 h
  mass gain or mass loss: −0.08
[1]; 75% RH, 8 h
  mass gain or mass loss: 0.02
[1]; 75% RH, 14 h
  mass gain or mass loss: 0.01
[1]; 75% RH, 48 h
  mass gain or mass loss: 0.06
[1]; 75% RH, 96 h
  mass gain or mass loss: −0.06
[1]; 75% RH, 144 h
  mass gain or mass loss: −0.08
[1]; 75% RH, 168 h
  mass gain or mass loss: −0.05
[1]; 75% RH, 192 h
  mass gain or mass loss: 0.00
[1]; 75% RH, 216 h
  mass gain or mass loss: 0.01
[1]; 75% RH, 240 h
  mass gain or mass loss: 0.29
[1]; 85% RH, 4 h
  mass gain or mass loss: 0.16
[1]; 85% RH, 8 h
  mass gain or mass loss: 0.13
[1]; 85% RH, 14 h
  mass gain or mass loss: 0.22
[1]; 85% RH, 48 h
  mass gain or mass loss: 0.26
[1]; 85% RH, 96 h
  mass gain or mass loss: 0.07
[1]; 85% RH, 144 h
  mass gain or mass loss: 0.24
[1]; 85% RH, 168 h
  mass gain or mass loss: 0.18
[1]; 85% RH, 192 h
  mass gain or mass loss: 0.15
[1]; 85% RH, 216 h
  mass gain or mass loss: 0.23
[1]; 85% RH, 240 h
  mass gain or mass loss: 0.59
[1]; 93% RH or below
  mass gain or mass loss (in words): No significant mass gain or mass loss
[1]; 93% RH, 4 h
  mass gain or mass loss: 0.16
[1]; 93% RH, 8 h
  mass gain or mass loss: 0.03
[1]; 93% RH, 14 h
  mass gain or mass loss: 0.24
[1]; 93% RH, 48 h
  mass gain or mass loss: 0.44
[1]; 93% RH, 96 h
  mass gain or mass loss: 0.40
[1]; 93% RH, 144 h
  mass gain or mass loss: 0.43
[1]; 93% RH, 168 h
  mass gain or mass loss: 0.39
[1]; 93% RH, 192 h
  mass gain or mass loss: 0.38
[1]; 93% RH, 216 h
  mass gain or mass loss: 0.43
[1]; 93% RH, 240 h
  mass gain or mass loss: 0.81
[1]; 97% RH
  water addition (in words): significant water addition issue
[1]; 97% RH, 4 h
  mass gain or mass loss: 1.51
[1]; 97% RH, 8 h
  mass gain or mass loss: 1.06
[1]; 97% RH, 14 h
  mass gain or mass loss: 4.36
[1]; 97% RH, 48 h
  mass gain or mass loss: 7.86
[1]; 97% RH, 96 h
  mass gain or mass loss: 13.77
[1]; 97% RH, 144 h
  mass gain or mass loss: 23.58
[1]; 97% RH, 168 h
  mass gain or mass loss: 23.62
[1]; 97% RH, 192 h
  mass gain or mass loss: 23.06
[1]; 97% RH, 216 h
  mass gain or mass loss: 22.13
[1]; 97% RH, 240 h
  mass gain or mass loss: 19.88
[1]; before the hygroscopicity study
  KF initial: HYGR[…] (KF initial = 0.9692%)
[2]; 0.125 mg and 0.4 mg o.d. for 17 days
  effect on the volume of urine per void (in words): A dose-relationship was observed
[2]; 0.125 mg group, day 0
  number of voids per day: 7.6 times per day
[2]; 0.125 mg group, day 17
  number of voids per day: 6.8 times per day
[2]; 0.125 mg o.d., from day 10 until day 17 (steady state)
  volume per void: 450 to 550 mL
[2]; 0.4 mg group, day 0
  number of voids per day: 8 times per day
[2]; 0.4 mg group, day 17
  number of voids per day: 6.4 times per day
[2]; 0.4 mg o.d., from day 2 until the end of the study
  mean volumes per void: 550 to 650 mL
[3]; aqueous buffer, 0.1N sodium hydroxide
  solubility: 90 µg/mL
[3]; crystalline form, water
  solubility in water (in words): highly soluble in water
[3]; organic solvent or mixture, Dichloromethane
  solubility: 2200 µg/mL
[3]; organic solvent or mixture, Ethanol
  solubility: 10000 µg/mL
[3]; organic solvent or mixture, Hexane
  solubility: 300 µg/mL
[3]; organic solvent or mixture, Isopropyl alcohol
  solubility: 1500 µg/mL
[3]; organic solvent or mixture, Methanol
  solubility: 258000 µg/mL
[3]; organic solvent or mixture, n-Octanol
  solubility: 500 µg/mL
[3]; simulated gastric fluid, 0.1 Hydrochloric acid
  solubility: 367000 µg/mL
[3]; Water
  solubility: 251000 µg/mL
[4]; 0.1 mg o.d.
  incidence of treatment emergent adverse events: 25%
[4]; [5]
  increase in infused volume: 73 mL
  increase in volume at first desire to void: 60 mL
  increase in volume at strong desire to void: 71 mL
[4]; 0.1 mg versus 0.2 mg o.d.
  dose-response relationship (in words): no dose-response relationship
[4]; 0.2 mg o.d.
  incidence of treatment emergent adverse events: 33%
[4]; OAB patients
  tolerability (in words): well tolerated
[4]; OAB patients, listed as Tarafenacin tartrate
  pharmacological activity (in words): good pharmacological activity
[4]; OAB patients, listed as tarafenacin tartrate
  pharmacological activity (in words): higher pharmacological activity
